Patent publication US20160303095A1, “METHODS OF TREATING HEPATITIS B VIRUS” (Gilead Sciences, Inc., priority 2015, published 2016)
Read-outs that look alike come from different tables or passages of the source.

Assays:
HBV [1] = experiment: PHH screening protocol: HBsAg and HBeAg levels by MSD ELISA; assay type: cell-based, Hepatitis B Virus; details: Hepatitis B virus
Method: HBV antiviral activity was assessed in primary human hepatocytes (PHH) in a 96-well format. PHH were (Life Technologies, Chicago, 11) plated on collagen coated tissue culture plates using Plating Media containing William's Medium E supplemented with 1% Penicillin/Streptomycin, 4 μg/mL human recombinant insulin, 2 mM glutamax, 15 mM Hepes, 1 μM dexamethasone and 5% fetal bovine serum (Life Technologies, Cat#A12176-01 Life Technologies, Chicago, Ill.). After a 4-hour incubation at 37° C., cells were switched to Maintenance Media (Cat#CM4000-A15564 Life Technologies, Chicago, Ill.) containing William's Medium E supplemented with 0.5% Penicillin/Streptomycin, 6.25 μg/mL human recombinant insulin, 6.25 μg/mL human transferrin, 6.25 ng/mL selenous acid, 1.25 mg/mL bovine serum albumin, 5.35 μg/mL linoleic acid, 2 mM glutamax, 15 mM Hepes, 0.1 μM dexamethasone, 2% fetal bovine serum, and 2% DMSO (Cat#D2650 Sigma, St. Louis, Mo.). On the next day, cells were infected with approximately 500 genome equivalent of selected HBV clinical isolates (21P (GTA), 32P (GTA), 91P (GTA), AD38 (GTD), 65P (GTD) or 30P (GTE); ProteoGenex, Culver City, Calif.) per cell in Maintenance Media supplemented with 4% PEG 8000 (Cat#V3011 Promega, Madison, Wis.). After 24 hour incubation cells were washed three times with William's Medium E and fed with fresh Maintenance Media. Small molecule inhibitors targeting KDMs were serially diluted in Maintenance Media and added to cells at 3 days post infection (p.i.). Media with compounds was replenished every 2-3 days. Media collected on various days was used for determination of HBsAg and HBeAg levels by MSD ELISA, and HBV RNA by qPCR. All data were converted into percentages of the untreated control and non-linear regression was performed to calculate EC50 or CC50 values.

[2] = Alamar Blue cell viability assay; assay type: cell-based; details: human
Method: Alamar Blue cell viability reagent (Cat#DAL1100 Life Technologies, Chicago, Ill.) was diluted 1 to 10 in Maintenance Media and added to the cells. Cells were incubated for 4 h at 37° C. and the fluorescence signal, which is proportional to the number of live cells, was read using a fluorimeter with excitation/emission spectra set at 560/590 nm, respectively. Data were converted into percentages of the untreated control and non-linear regression was performed to calculate CC50 values.
PHH were plated in collagen coated tissue culture plates in Plating Media and after 4-hour incubation at 37° C., cells were switched to Maintenance Media. On the next day, the cells were infected with 500 genome equivalents per cell of Genotype-A clinical isolate 21P (ProteoGenex, Culver City, Calif.) in 100 μl Maintenance Media supplemented with 4% PEG 8000 (Cat#V3011 Promega, Madison, Wis.). After an overnight incubation the inoculum was removed and the cells were washed three times with William's Media E and maintained in Maintenance Media. […] Following the transfection, the cells were incubated at 37° C. in a humidified incubator and media was changed every 3-4 days. The assay was terminated on day 14 post infection and cell viability was assessed by Alamar Blue. The collected medium was used for determination of HBsAg and HBeAg levels by MSD ELISA while cells were processed for determination of HBV RNA using qPCR.

HBV [3] = experiment: Determination of HBV viral RNA by RT-qPCR in PHH; assay type: cell-based; details: Hepatitis B virus, read-out: HBV RNA EC50
Method: Following the Alamar Blue measurement, media was removed and total RNA from the cells was isolated using the RNeasy 96 Kit (Cat#74182 Qiagen, Venlo, Netherlands). […] GAPDH mRNA levels were also measured by RT-qPCR to control for differences in cell number, toxicity, and RNA purification efficiency (Cat#4390849 Life Technologies, Chicago Ill.). HBV mRNA Ct values were normalized using their cognate GAPDH mRNA Ct values by the delta-delta-Ct calculation and then expressed as a percentage of the non-targeting scrambled control.

KDM5D = target: T1, KDM5D (Homo sapiens, UniProt Q9BY66); experiment: Biochemical KDM inhibition assay (LANCE), KDM5D; details: read-out: Biochemical IC50 KDM 5D
T1 construct: host or cells: Sf9 cells
T1 sequence (Q9BY66 whole entry): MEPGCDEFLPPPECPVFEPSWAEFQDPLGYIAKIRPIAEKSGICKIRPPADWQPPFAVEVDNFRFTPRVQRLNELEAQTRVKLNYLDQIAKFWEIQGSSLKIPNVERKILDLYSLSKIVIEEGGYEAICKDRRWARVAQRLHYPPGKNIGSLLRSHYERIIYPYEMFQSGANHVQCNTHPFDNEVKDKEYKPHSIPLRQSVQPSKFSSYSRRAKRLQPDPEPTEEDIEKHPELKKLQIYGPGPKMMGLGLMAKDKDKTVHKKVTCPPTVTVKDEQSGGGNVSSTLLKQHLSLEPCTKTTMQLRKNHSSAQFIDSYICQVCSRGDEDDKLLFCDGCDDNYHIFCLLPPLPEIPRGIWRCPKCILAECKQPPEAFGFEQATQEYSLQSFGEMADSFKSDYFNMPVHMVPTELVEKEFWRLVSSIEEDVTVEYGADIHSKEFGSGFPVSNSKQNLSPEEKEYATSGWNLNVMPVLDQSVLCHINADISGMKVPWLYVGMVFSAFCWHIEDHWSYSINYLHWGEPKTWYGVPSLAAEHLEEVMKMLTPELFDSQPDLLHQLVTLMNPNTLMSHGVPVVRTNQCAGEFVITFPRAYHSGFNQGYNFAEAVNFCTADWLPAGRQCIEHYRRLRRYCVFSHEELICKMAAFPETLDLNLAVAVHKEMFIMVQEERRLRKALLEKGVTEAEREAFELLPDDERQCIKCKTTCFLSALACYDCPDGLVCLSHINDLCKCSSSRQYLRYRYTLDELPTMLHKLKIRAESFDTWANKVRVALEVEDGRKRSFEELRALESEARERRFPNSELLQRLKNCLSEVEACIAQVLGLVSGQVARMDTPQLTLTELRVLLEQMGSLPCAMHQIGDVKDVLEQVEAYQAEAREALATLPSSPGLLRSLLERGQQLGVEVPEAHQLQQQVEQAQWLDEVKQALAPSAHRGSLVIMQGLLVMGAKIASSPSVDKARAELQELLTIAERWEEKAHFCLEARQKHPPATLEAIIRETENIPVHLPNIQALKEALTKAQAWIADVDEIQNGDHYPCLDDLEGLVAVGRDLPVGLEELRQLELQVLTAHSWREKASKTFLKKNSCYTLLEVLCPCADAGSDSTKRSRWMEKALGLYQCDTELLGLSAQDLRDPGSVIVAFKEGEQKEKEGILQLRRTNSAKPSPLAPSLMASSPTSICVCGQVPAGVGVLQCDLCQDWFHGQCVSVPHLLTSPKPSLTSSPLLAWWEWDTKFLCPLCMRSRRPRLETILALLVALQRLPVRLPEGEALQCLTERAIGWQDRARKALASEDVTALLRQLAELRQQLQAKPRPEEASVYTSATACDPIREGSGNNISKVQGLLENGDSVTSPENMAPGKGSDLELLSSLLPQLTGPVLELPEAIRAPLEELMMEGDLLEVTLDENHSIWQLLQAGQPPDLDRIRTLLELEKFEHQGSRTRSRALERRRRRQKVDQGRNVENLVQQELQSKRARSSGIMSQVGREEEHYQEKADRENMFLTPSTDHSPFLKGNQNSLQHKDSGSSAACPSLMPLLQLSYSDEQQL
Method: (§1) Representative compounds were characterized for their inhibition of KDM5 using biotinylated histone substrates. Inhibition was measured in vitro (CEREP Poitier, Le Bois l'Evêque, France) following experimental conditions described in Table 2. Briefly, the test compound, reference compound or water (control) was mixed with about 2-20 ng of recombinant, Human enzymes expressed in Sf9 cells in a buffer containing 45 mM Hepes/Tris (pH 7), 5 μM FAS, 100 μM ascorbic acid, 10 μM 2-oxoglutarate, 0.01% Tween 20 and 0.01% BSA. Thereafter, the reaction was initiated by adding the biotin-labeled substrate, and the mixture was incubated for 10-30 min at room temperature. For basal control measurements, the enzyme was omitted from the reaction mixture. Following incubation the reaction was stopped by adding 1 mM EDTA. After 5 min, the anti-methyl histone antibody labeled with europium chelate and the Ulight streptavidine (Perkin Elmer Waltham, Mass.) were added. After 60 min more, the fluorescence transfer was measured at λex=320 nm and λem=620 and λem=665 nm using a microplate reader (Envision, Perkin Elmer) (LANCE). The enzyme activity was determined by dividing the signal measured at λem=665 nm by that measured at 620 nm (ratio).

KDM5A = KDM5A (Homo sapiens, UniProt P29375); experiment: Biochemical KDM inhibition assay (LANCE), KDM5A; details: read-out: Biochemical IC50 KDM 5A
KDM5A, sequence (P29375 whole entry): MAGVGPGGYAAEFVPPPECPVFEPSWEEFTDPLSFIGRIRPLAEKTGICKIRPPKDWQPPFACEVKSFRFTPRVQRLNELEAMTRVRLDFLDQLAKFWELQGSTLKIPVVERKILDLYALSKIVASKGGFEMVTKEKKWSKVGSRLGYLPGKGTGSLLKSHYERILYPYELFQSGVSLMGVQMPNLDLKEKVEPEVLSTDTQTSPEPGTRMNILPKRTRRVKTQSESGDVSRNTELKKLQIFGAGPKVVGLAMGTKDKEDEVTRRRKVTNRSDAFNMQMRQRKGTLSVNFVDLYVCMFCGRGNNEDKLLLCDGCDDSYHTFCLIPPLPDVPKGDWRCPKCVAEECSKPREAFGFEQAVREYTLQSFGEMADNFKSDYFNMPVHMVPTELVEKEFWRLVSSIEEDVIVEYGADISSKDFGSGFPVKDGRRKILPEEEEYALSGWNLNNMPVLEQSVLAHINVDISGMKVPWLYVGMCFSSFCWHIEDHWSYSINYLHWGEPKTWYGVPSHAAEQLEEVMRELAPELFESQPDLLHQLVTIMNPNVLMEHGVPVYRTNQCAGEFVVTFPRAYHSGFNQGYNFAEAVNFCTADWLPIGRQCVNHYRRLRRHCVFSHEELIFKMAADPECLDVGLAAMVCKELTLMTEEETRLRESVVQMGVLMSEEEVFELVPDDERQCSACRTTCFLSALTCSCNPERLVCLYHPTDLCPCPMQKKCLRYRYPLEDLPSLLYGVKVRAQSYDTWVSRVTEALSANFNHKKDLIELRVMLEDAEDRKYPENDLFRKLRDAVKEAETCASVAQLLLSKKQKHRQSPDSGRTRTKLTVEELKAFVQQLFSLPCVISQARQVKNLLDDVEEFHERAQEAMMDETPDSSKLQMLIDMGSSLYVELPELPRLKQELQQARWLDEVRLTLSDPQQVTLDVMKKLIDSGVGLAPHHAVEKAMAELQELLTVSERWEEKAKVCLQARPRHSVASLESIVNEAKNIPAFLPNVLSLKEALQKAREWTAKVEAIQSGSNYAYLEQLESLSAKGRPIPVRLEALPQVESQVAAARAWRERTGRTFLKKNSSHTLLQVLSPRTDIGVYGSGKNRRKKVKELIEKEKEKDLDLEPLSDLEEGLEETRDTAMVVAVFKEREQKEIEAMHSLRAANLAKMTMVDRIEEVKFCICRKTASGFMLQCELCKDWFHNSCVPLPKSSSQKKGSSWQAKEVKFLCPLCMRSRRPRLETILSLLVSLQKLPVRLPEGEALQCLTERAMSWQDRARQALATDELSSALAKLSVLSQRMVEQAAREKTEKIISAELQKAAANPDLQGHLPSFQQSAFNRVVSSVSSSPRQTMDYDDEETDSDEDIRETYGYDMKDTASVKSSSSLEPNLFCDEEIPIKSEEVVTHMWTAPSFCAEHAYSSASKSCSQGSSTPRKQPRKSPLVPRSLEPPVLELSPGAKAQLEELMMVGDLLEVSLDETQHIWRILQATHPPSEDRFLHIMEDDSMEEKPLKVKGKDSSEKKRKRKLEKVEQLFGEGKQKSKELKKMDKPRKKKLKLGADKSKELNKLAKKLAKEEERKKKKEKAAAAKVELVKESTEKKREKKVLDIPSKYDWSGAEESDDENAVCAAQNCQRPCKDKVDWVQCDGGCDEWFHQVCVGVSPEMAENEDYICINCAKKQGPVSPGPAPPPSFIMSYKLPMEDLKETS
Method: as §1

KDM4E = target: T2, KDM4E (Homo sapiens, UniProt B2RXH2); experiment: Biochemical KDM inhibition assay (LANCE), KDM4E; details: read-out: Biochemical IC50 KDM 4E
T2 construct: host or cells: Sf9 cells
T2 sequence (B2RXH2 1-506): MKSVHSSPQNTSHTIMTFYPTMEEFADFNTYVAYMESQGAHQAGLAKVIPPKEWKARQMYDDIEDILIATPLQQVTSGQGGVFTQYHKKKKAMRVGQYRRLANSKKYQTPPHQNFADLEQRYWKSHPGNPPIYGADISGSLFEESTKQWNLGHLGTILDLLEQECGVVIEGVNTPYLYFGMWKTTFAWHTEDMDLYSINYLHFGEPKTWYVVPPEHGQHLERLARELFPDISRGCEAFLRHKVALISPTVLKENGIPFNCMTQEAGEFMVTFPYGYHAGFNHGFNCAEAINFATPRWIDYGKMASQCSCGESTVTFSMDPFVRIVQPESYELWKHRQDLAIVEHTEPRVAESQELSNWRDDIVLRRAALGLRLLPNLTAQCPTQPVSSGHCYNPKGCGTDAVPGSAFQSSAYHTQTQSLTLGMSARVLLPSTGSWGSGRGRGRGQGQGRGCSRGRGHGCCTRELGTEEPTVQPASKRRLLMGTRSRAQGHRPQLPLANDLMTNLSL

KDM5B = target: T3, KDM5B (Homo sapiens, UniProt Q9UGL1); experiment: Biochemical KDM inhibition assay (LANCE), KDM5B; details: read-out: Biochemical IC50 KDM 5B
T3 construct: host or cells: Sf9 cells
T3 sequence (Q9UGL1 whole entry): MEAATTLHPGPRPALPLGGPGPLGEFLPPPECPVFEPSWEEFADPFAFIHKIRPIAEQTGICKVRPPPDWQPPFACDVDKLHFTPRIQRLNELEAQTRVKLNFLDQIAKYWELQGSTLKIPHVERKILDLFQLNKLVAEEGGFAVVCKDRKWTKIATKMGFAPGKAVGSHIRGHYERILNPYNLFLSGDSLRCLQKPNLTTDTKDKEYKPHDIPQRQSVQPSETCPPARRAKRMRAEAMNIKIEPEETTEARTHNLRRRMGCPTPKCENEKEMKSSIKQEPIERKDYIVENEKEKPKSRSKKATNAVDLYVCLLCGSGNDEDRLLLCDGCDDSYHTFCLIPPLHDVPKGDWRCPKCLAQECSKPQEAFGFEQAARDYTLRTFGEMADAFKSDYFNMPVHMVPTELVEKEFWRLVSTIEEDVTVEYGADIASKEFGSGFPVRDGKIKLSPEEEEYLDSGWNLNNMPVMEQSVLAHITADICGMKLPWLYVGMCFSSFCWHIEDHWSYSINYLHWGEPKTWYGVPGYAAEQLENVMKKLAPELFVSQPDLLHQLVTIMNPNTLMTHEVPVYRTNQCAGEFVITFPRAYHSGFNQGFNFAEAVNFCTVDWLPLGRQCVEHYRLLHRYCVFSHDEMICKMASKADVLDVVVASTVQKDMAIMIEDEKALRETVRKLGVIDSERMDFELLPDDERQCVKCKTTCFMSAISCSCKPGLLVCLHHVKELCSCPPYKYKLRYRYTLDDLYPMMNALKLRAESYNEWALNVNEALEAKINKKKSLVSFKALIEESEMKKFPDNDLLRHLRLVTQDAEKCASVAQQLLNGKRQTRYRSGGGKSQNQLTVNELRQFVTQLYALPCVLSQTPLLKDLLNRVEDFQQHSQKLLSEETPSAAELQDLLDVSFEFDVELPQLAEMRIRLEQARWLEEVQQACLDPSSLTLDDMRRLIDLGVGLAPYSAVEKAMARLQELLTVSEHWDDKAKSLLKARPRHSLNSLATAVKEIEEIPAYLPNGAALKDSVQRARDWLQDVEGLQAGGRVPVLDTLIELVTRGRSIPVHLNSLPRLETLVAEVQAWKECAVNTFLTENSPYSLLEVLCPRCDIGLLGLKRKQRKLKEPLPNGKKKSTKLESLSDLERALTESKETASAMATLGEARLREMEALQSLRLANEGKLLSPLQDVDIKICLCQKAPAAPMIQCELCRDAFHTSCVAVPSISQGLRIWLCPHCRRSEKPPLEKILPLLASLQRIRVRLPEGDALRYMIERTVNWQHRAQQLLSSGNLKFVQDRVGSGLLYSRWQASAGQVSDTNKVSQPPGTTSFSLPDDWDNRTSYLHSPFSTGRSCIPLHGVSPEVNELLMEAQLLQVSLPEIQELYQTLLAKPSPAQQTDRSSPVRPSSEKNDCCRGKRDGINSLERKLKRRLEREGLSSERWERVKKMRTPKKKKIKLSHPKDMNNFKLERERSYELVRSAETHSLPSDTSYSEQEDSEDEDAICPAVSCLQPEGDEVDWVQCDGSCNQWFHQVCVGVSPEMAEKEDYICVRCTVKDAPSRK
Method: as §1

H3K4me3 mark = experiment: Western blot detection of H3K4me3 in HBV-infected PHHs; assay type: cell-based, human; details: for IC50: Homo sapiens
Method: One million primary human hepatocytes (PHH) cells from three different donors were plated in 6 well collagen coated tissue culture plates in 2.5 ml Plating Media containing William's Medium E supplemented with 1% Penicillin/Streptomycin, 4 μg/mL human recombinant insulin, 2 mM glutamax, 15 mM Hepes, 1 μM dexamethasone and 5% fetal bovine serum (Life Technologies, Cat#A12176-01 Life Technologies, Chicago, Ill.) and incubated for 4-hours at 37° C. Following this incubation the media was changed to Maintenance Media (Cat#CM4000-A15564 Life Technologies, Chicago, Ill.) containing William's Medium E supplemented with 0.5% Penicillin/Streptomycin, 6.25 μg/mL human recombinant insulin, 6.25 μg/mL human transferrin, 6.25 ng/mL selenous acid, 1.25 mg/mL bovine serum albumin, 5.35 μg/mL linoleic acid, 2 mM glutamax, 15 mM Hepes, 0.1 μM dexamethasone, 2% fetal bovine serum, and 2% DMSO (Cat#D2650 Sigma, St. Louis, Mo.). The next day, cells were infected with approximately 500 genome equivalents of HBV clinical isolates 21P (GTA) or AD38 (GTD) per cell in Maintenance Media supplemented with 4% PEG 8000. Small molecule inhibitors targeting KDMs were serially diluted in Maintenance Media and added to cells at 3 days post infection (p.i.). Media with compounds was replenished every 2-3 days. Cells were harvested on day 14 p.i. by scraping the monolayer into ice-cold PBS supplemented with 5 mM Sodium Butyrate and concentrated by centrifugation at 1000×g for 5 minutes at 4° C. The cell pellets were washed twice by re-suspension in PBS and concentrated by centrifugation. The cells were lysed by suspension in Triton Extraction Buffer (TEB: PBS containing 0.5% Triton X 100 (v/v), 2 mM phenylmethylsulfonyl fluoride (PMSF), 0.02% (w/v) NaN3) at a cell density of 10^7 cells per ml and incubated on ice for 10 minutes with gentle stirring. Following centrifugation at 500 g for 10 minutes at 4° C., the supernatants were removed and the pellets were washed in 5×10^7 cells per ml TEB buffer and centrifuged as before. The pellets were re-suspended in 0.2N HCl at a cell density of 4×10^7 cells per ml and the histones were acid extracted overnight at 4° C. Samples were centrifuged at 500 g for 10 minutes at 4° C., the supematants were removed and protein content was determined using the Bradford assay. Histones were separated on a 4-20% gradient SDS gel (Mini protean TGX precast gels from BioRad), and blotted to a Hybond C-extra nitrocellulose membrane (Amersham Biosciences, RPN303E). H3K4me3 and total H3 were detected with a mixture of 1° antibodies (Cat#05-745R Millipore and Cat#14269S Cell Signaling) diluted 1:1000 in 5% skimmed milk powder in PBS containing 0.1% Tween. The western blot was washed 3 times in PBS containing 0.1% tween and incubated with 2° antibodies (Donkey anti-Mouse IRDye at 680LT Cat#926-68022 Licor Odyssey; Donkey anti-Rabbit IRDye at 800CW Cat#96-32213; Licor Odyssey) diluted 1:10000 in 5% skimmed milk powder in PBS containing 0.1% tween 20 for 1 h. Detection of infrared fluorescence was performed on Infrared Fluorescence Imaging System LI-COR. Concentration dependence of H3K4me3/H3 signal was used to calculate IC50 value for induction of H3K4 trimethylation.

[4] = read-out: HBeAg EC50, HBV-infected PHH
[5] = read-out: HBsAg EC50, HBV-infected PHH
[6] = primary human hepatocytes (PHH), read-out: PHH CC50

SMILES | EC50 (HBV [1]; [4]) | EC50 (HBV [1]; [5]) | CC50 [2] | CC50 [2, 6] | further results
NC1CC1c1cccc(OCC[C@H](NC(=O)c2ccccc2)C(=O)NCc2ccccc2)c1 (some centres unmarked) [Example 10, NCL-1, reference compound] | 19 µM | 19.4 µM | 8.12 µM | – | –
O=C(O)c1ccc(O)c2ncccc12 [Example 2, 8-HQ-5-COOH, reference compound] | 32 µM | 45.8 µM | – | – | –
N[C@H]1C[C@@H]1c1ccc(-c2cccc(O)c2)cc1 [Example 6, OG-L002, reference compound] | 46.7 µM | 38.3 µM | ≥ 100 µM | – | EC50 (HBV [3]): 31.6 µM
CN(C)CCCNC(=O)c1ccc(-c2cc(O)c3ncccc3c2)cc1 [Example 5, ML-324, reference compound] | 34.5 µM | 38.4 µM | – | 69.4 µM | –
CCOC(=O)CCNc1cc(N2CCc3ccccc3CC2)nc(-c2ccccn2)n1 [Example 3, GSK-J4, reference compound] | 3.43 µM | 28.7 µM | – | ≥ 100 µM | –
O=C(O)c1ccnc(-n2ncc(CCO)c2OCc2ccc(F)cc2)c1 [Example 12] | 50 µM | 50 µM | ≥ 50 µM | – | IC50 (KDM5D): 6.4 µM; IC50 (KDM5A): 1.6 µM; IC50 (KDM4E): 9.1 µM; IC50 (KDM5B): 2.7 µM
CCN(CCN(C)C)C(=O)CNCc1cc(/C=N/CCO)ccn1 [Example 16] | 0.648 µM | 0.257 µM | ≥ 50 µM | – | –
Clc1ccc(N/N=C(\c2ccccc2)c2ccccn2)nc1 [Example 4, JIB-04, reference compound] | 0.9 µM | 0.9 µM | ≥ 100 µM | – | EC50 (HBV [3]; HBV-infected PHH): 4.6 µM
O=C(O)CCNc1cc(N2CCc3ccccc3CC2)nc(-c2ccccn2)n1 [Example 1, GSK-J1, reference compound] | 8.04 µM | 22.4 µM | – | ≥ 100 µM | –
CCN(CCN(C)C)C(=O)CNCc1cc(C=O)ccn1 [Example 15] | 0.053 µM | 0.041 µM | ≥ 50 µM | – | IC50 (H3K4me3 mark; read-out: IC50 (concentration causing a 50% increase in the H3K4me3 mark), Virus 21P (GTA), PHH 8130): 0.05 µM; IC50 (H3K4me3 mark; read-out: IC50 (concentration causing a 50% increase in the H3K4me3 mark), Virus 21P (GTA), PHH 8181): 0.03 µM; IC50 (H3K4me3 mark; read-out: IC50 (concentration causing a 50% increase in the H3K4me3 mark), Virus AD38 (GTD), PHH 4239): 0.02 µM; IC50 (H3K4me3 mark; read-out: IC50 (concentration causing a 50% increase in the H3K4me3 mark), Virus AD38 (GTD), PHH 8130): 0.05 µM; IC50 (H3K4me3 mark; read-out: IC50 (concentration causing a 50% increase in the H3K4me3 mark), Virus AD38 (GTD), PHH 8181): 0.04 µM; chromatin H3K4Me3 mark (H3K4me3 mark; PHH from three different donors): increase in the chromatin H3K4Me3 mark in a dose-dependent manner
